# Measurements published in PubChem BioAssay (NCI).
#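 How tested: cells in 96-well plates exposed to compound for 48 hours at five concentrations. GI50 marks 50% less growth. TGI: concentration producing complete growth inhibition.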 Calls of active or inactive are those of the source. Rule as the data show it: active = GI50 below about 0.43 µM; inactive = the rest.
# Assays:
# Assay in all cases: NCI tumour cell line growth inhibition, 48 h
# PC-3 prostate = test system: PC-3 prostate
# T-47D breast = test system: T-47D breast
# SF-268 CNS = test system: SF-268 CNS
# NCI-H522 lung = test system: NCI-H522 lung
# 786-0 renal = test system: 786-0 renal
# HCT-116 colon = test system: HCT-116 colon
# SK-OV-3 ovarian = test system: SK-OV-3 ovarian
# SK-MEL-5 melanoma = test system: SK-MEL-5 melanoma
# OVCAR-8 ovarian = test system: OVCAR-8 ovarian
# HOP-62 NSCLC = test system: HOP-62 NSCLC
# SW-620 colon = test system: SW-620 colon
# CCRF-CEM leukemia = test system: CCRF-CEM leukemia
# M14 melanoma = test system: M14 melanoma
# KM12 colon = test system: KM12 colon
# NCI/ADR-RES ovarian = test system: NCI/ADR-RES ovarian
# MOLT-4 leukemia = test system: MOLT-4 leukemia
# MDA-MB-231 breast = test system: MDA-MB-231 breast
# A549 NSCLC = test system: A549 NSCLC
# A498 renal = test system: A498 renal
# UO-31 renal = test system: UO-31 renal
# EKVX NSCLC = test system: EKVX NSCLC
# SF-295 CNS = test system: SF-295 CNS
# HCC-2998 colon = test system: HCC-2998 colon
# NCI-H460 lung = test system: NCI-H460 lung
# OVCAR-3 ovarian = test system: OVCAR-3 ovarian
# K-562 leukemia = test system: K-562 leukemia
# TK-10 renal = test system: TK-10 renal
# DU-145 prostate = test system: DU-145 prostate
# IGROV1 ovarian = test system: IGROV1 ovarian
# LOX IMVI melanoma = test system: LOX IMVI melanoma
# NCI-H226 lung = test system: NCI-H226 lung
# HT29 colon = test system: HT29 colon
# SNB-19 CNS = test system: SNB-19 CNS
# MALME-3M melanoma = test system: MALME-3M melanoma
# NCI-H23 lung = test system: NCI-H23 lung
# HCT-15 colon = test system: HCT-15 colon
# COLO 205 colon = test system: COLO 205 colon
# OVCAR-5 ovarian = test system: OVCAR-5 ovarian
# SK-MEL-28 melanoma = test system: SK-MEL-28 melanoma
# UACC-62 melanoma = test system: UACC-62 melanoma
# MDA-MB-435 = test system: MDA-MB-435
# U251 CNS = test system: U251 CNS
# BT-549 breast = test system: BT-549 breast
# ACHN renal = test system: ACHN renal
# OVCAR-4 ovarian = test system: OVCAR-4 ovarian
# SK-MEL-2 melanoma = test system: SK-MEL-2 melanoma
# SF-539 CNS = test system: SF-539 CNS
# CAKI-1 renal = test system: CAKI-1 renal
# SNB-75 CNS = test system: SNB-75 CNS
# RXF 393 renal = test system: RXF 393 renal
# MCF7 breast = test system: MCF7 breast
# UACC-257 melanoma = test system: UACC-257 melanoma
# RPMI-8226 leukemia = test system: RPMI-8226 leukemia
# SR leukemia = test system: SR leukemia
# HL-60(TB) leukemia = test system: HL-60(TB) leukemia
structure (smiles),measurement,setting,value
FC(F)(F)c1ccc(C#Cc2ccccc2C#Cc2ccccc2)cc1,GI50,PC-3 prostate,51.5 µM
same,TGI,PC-3 prostate,> 100 µM
same,GI50,T-47D breast,26.2 µM
same,TGI,T-47D breast,60.1 µM
same,GI50,SF-268 CNS,42.9 µM
same,TGI,SF-268 CNS,> 100 µM
same,GI50,NCI-H522 lung,21.4 µM
same,TGI,NCI-H522 lung,45.4 µM
same,GI50,786-0 renal,46.1 µM
same,TGI,786-0 renal,> 100 µM
same,GI50,HCT-116 colon,21.6 µM
same,TGI,HCT-116 colon,> 100 µM
same,GI50,SK-OV-3 ovarian,32.6 µM
same,TGI,SK-OV-3 ovarian,> 100 µM
same,GI50,SK-MEL-5 melanoma,32.7 µM
same,TGI,SK-MEL-5 melanoma,> 100 µM
same,GI50,OVCAR-8 ovarian,59.2 µM
same,TGI,OVCAR-8 ovarian,> 100 µM
same,GI50,HOP-62 NSCLC,52.5 µM
same,TGI,HOP-62 NSCLC,> 100 µM
same,GI50,SW-620 colon,30.6 µM
same,TGI,SW-620 colon,> 100 µM
same,GI50,CCRF-CEM leukemia,26 µM
same,TGI,CCRF-CEM leukemia,61.6 µM
same,GI50,M14 melanoma,44.3 µM
same,TGI,M14 melanoma,> 100 µM
same,GI50,KM12 colon,31.4 µM
same,TGI,KM12 colon,> 100 µM
same,GI50,NCI/ADR-RES ovarian,62.8 µM
same,TGI,NCI/ADR-RES ovarian,> 100 µM
same,GI50,MOLT-4 leukemia,35 µM
same,TGI,MOLT-4 leukemia,87.2 µM
same,GI50,MDA-MB-231 breast,26.5 µM
same,TGI,MDA-MB-231 breast,62.7 µM
same,GI50,A549 NSCLC,49.9 µM
same,TGI,A549 NSCLC,> 100 µM
same,GI50,A498 renal,29.3 µM
same,TGI,A498 renal,83.4 µM
same,GI50,UO-31 renal,49.7 µM
same,TGI,UO-31 renal,> 100 µM
same,GI50,EKVX NSCLC,33.6 µM
same,TGI,EKVX NSCLC,> 100 µM
same,GI50,SF-295 CNS,30.3 µM
same,TGI,SF-295 CNS,> 100 µM
same,GI50,HCC-2998 colon,32.7 µM
same,TGI,HCC-2998 colon,53.1 µM
same,GI50,NCI-H460 lung,41.1 µM
same,TGI,NCI-H460 lung,> 100 µM
same,GI50,OVCAR-3 ovarian,29.5 µM
same,TGI,OVCAR-3 ovarian,91.9 µM
same,GI50,K-562 leukemia,34.2 µM
same,TGI,K-562 leukemia,89.5 µM
same,GI50,TK-10 renal,31.7 µM
same,TGI,TK-10 renal,> 100 µM
same,GI50,DU-145 prostate,48 µM
same,TGI,DU-145 prostate,> 100 µM
same,GI50,IGROV1 ovarian,> 100 µM
same,TGI,IGROV1 ovarian,> 100 µM
same,GI50,LOX IMVI melanoma,26.2 µM
same,TGI,LOX IMVI melanoma,55.3 µM
same,GI50,NCI-H226 lung,30.1 µM
same,TGI,NCI-H226 lung,99.9 µM
same,GI50,HT29 colon,42.6 µM
same,TGI,HT29 colon,> 100 µM
same,GI50,SNB-19 CNS,69.3 µM
same,TGI,SNB-19 CNS,> 100 µM
same,GI50,MALME-3M melanoma,36.3 µM
same,TGI,MALME-3M melanoma,> 100 µM
same,GI50,NCI-H23 lung,49 µM
same,TGI,NCI-H23 lung,> 100 µM
same,GI50,HCT-15 colon,35.1 µM
same,TGI,HCT-15 colon,> 100 µM
same,GI50,COLO 205 colon,34.3 µM
same,TGI,COLO 205 colon,> 100 µM
same,GI50,OVCAR-5 ovarian,48.7 µM
same,TGI,OVCAR-5 ovarian,> 100 µM
same,GI50,SK-MEL-28 melanoma,> 100 µM
same,TGI,SK-MEL-28 melanoma,> 100 µM
same,GI50,UACC-62 melanoma,92.9 µM
same,TGI,UACC-62 melanoma,> 100 µM
same,GI50,MDA-MB-435,35.4 µM
same,TGI,MDA-MB-435,> 100 µM
same,GI50,U251 CNS,27.6 µM
same,TGI,U251 CNS,81.2 µM
same,GI50,BT-549 breast,> 100 µM
same,TGI,BT-549 breast,> 100 µM
same,GI50,ACHN renal,40.9 µM
same,TGI,ACHN renal,> 100 µM
same,GI50,OVCAR-4 ovarian,57.5 µM
same,TGI,OVCAR-4 ovarian,> 100 µM
same,GI50,SK-MEL-2 melanoma,29.2 µM
same,TGI,SK-MEL-2 melanoma,80 µM
same,GI50,SF-539 CNS,41.4 µM
same,TGI,SF-539 CNS,> 100 µM
same,GI50,CAKI-1 renal,46.1 µM
same,TGI,CAKI-1 renal,> 100 µM
same,GI50,SNB-75 CNS,> 100 µM
same,TGI,SNB-75 CNS,> 100 µM
same,GI50,RXF 393 renal,23.4 µM
same,TGI,RXF 393 renal,65.6 µM
same,GI50,MCF7 breast,22.5 µM
same,TGI,MCF7 breast,89.8 µM
same,GI50,UACC-257 melanoma,69.5 µM
same,TGI,UACC-257 melanoma,> 100 µM
CCOP(=O)(C/C=C\Cn1cnc(C(N)=O)c1N)OCC,GI50,UACC-62 melanoma,25.7 µM
same,TGI,UACC-62 melanoma,75.8 µM
O=c1[nH]c(C2CCCCC2)nc2c(Cl)cccc12,outcome,RPMI-8226 leukemia,inactive
same,outcome,MOLT-4 leukemia,inactive
same,outcome,SR leukemia,inactive
NC(N)=N/N=C/c1c(-c2cc([N+](=O)[O-])c(Cl)cc2Cl)nc2sccn12,TGI,HL-60(TB) leukemia,4.31 µM
same,TGI,786-0 renal,3.11 µM
same,GI50,HCT-116 colon,0.272 µM
same,TGI,HCT-116 colon,1.02 µM
same,TGI,SK-OV-3 ovarian,3.39 µM
same,TGI,HOP-62 NSCLC,3.44 µM
same,TGI,NCI/ADR-RES ovarian,> 100 µM
same,TGI,UO-31 renal,2.6 µM
same,GI50,HCC-2998 colon,1.36 µM
same,TGI,HCC-2998 colon,2.76 µM
same,GI50,IGROV1 ovarian,0.712 µM
same,TGI,IGROV1 ovarian,2.03 µM
same,GI50,HT29 colon,1.79 µM
same,TGI,HT29 colon,3.18 µM
same,GI50,SNB-19 CNS,0.274 µM
same,TGI,SNB-19 CNS,56.3 µM
same,GI50,COLO 205 colon,1.38 µM
same,TGI,COLO 205 colon,2.84 µM
same,TGI,OVCAR-5 ovarian,3.39 µM
same,TGI,SK-MEL-28 melanoma,2.67 µM
same,TGI,CAKI-1 renal,33.7 µM
COc1cccc2c1/c(=C/c1ccc(N(C)C)cc1)c1cc(-c3ccccc3)[n+](C)n12,TGI,SF-268 CNS,1.37 µM
same,TGI,786-0 renal,1.1 µM
same,TGI,HCT-116 colon,0.765 µM
same,TGI,SK-MEL-5 melanoma,0.312 µM
same,TGI,HOP-62 NSCLC,2.08 µM
same,TGI,RPMI-8226 leukemia,1.27 µM
same,TGI,CCRF-CEM leukemia,1.45 µM
same,TGI,M14 melanoma,1.08 µM
same,TGI,NCI/ADR-RES ovarian,> 100 µM
same,TGI,MOLT-4 leukemia,0.623 µM
same,TGI,MDA-MB-231 breast,2.2 µM
same,TGI,A549 NSCLC,2.5 µM
same,TGI,A498 renal,1.3 µM
same,TGI,UO-31 renal,0.802 µM
same,TGI,HCC-2998 colon,1.08 µM
same,TGI,NCI-H460 lung,0.949 µM
same,TGI,OVCAR-3 ovarian,1.5 µM
same,TGI,K-562 leukemia,1.39 µM
same,TGI,TK-10 renal,1.03 µM
same,TGI,DU-145 prostate,1.75 µM
same,TGI,HT29 colon,0.129 µM
same,TGI,SNB-19 CNS,1.72 µM
same,TGI,MALME-3M melanoma,0.684 µM
same,TGI,OVCAR-5 ovarian,1.66 µM
same,TGI,MDA-MB-435,1.65 µM
same,TGI,U251 CNS,1.32 µM
same,TGI,BT-549 breast,0.774 µM
same,TGI,ACHN renal,0.8 µM
same,TGI,OVCAR-4 ovarian,3.16 µM
same,TGI,SF-539 CNS,14.9 µM
same,TGI,SR leukemia,0.899 µM
same,TGI,SNB-75 CNS,0.997 µM
same,TGI,RXF 393 renal,1.94 µM
same,TGI,MCF7 breast,1.29 µM
same,TGI,UACC-257 melanoma,0.692 µM
